{"source": "patent US20090048179A1", "about": "“USE OF 5-PHOSPHODIESTERASE INHIBITORS TO ENHANCE THE PERMEABILITY OF THE BLOOD-BRAIN BARRIER OF ABNORMAL BRAIN TISSUE AND THE BLOOD-TUMOR BARRIER” (CEDARS-SINAI MEDICAL CENTER, priority 2005, published 2009)", "key": {"[1]": {"assay": "Animal physiologic parameters (mean arterial blood pressure, blood gases, side effects)", "type": "in vivo, rat", "conditions": "for reduction in mean-arterial blood pressure: BK femoral infusion, sildenafil 5-100 mg/kg or vardenafil 1-20 mg/kg oral; for detectable side effects (e.g. hypotension): oral doses used in the rats", "protocol": "For Ki study described below, six days after tumor implantation, the rats were anesthetized with ketamine/xylazine. One femoral vein was cannulated for administration of the appropriate drug and the radiotracer; one femoral artery was cannulated to withdraw arterial blood, and another femoral artery was cannulated to monitor systemic blood pressure. Body temperature was maintained at 37° C., and arterial blood gases, blood pressure and hematocrit were monitored.\nMean-arterial blood pressures were decrease approximately 30% secondary to the femoral infusion of BK."}, "cGMP [2]": {"tested_on": "cGMP", "assay": "Plasma cGMP assay in 9L tumor-bearing rats", "type": "in vivo, rat", "protocol": "cGMP levels were determined using a ELISA-based kit (Cayman Chemical Co., Ann Arbor, Mich.) for plasma and immunohistocytochemistry with anti-cGMP antibody (Chemicon Corp.) for tissue sections.\nIntracerebral inoculations of 9L tumor cells were performed as described above. […] Different groups of rats were anesthetized 5 minutes before and at 30, 60, 90 and 120 minutes after treatment respectively and the femoral vein was cannulated. Blood was collected and the plasma was separated. The cGMP concentration in the plasma was determined using a commercially available ^125I-labeled cGMP assay kit (Amersham, Arlington Heights, Ill.). cGMP content was expressed as pmol/ml of plasma."}, "9L gliosarcoma": {"tested_on": "9L gliosarcoma", "assay": "Survival study, 9L/Luc gliosarcoma-bearing rats, treatment for three days from day 4", "type": "in vivo, rat", "conditions": "vardenafil 10 mg/kg oral, Adriamycin 2 mg/kg i.v., saline 32±2", "source_text": "A p-value of less than 0.05 was considered statistically significant."}, "cGMP [3]": {"tested_on": "cGMP", "assay": "Brain cGMP immunohistochemistry in 9L tumor-bearing rats", "type": "in vivo, rat", "conditions": "oral vardenafil 10 mg/kg"}, "9L glioma": {"tested_on": "9L glioma", "assay": "Survival study, 9L/Fischer rats, treatment on days 7, 8 and 9 post tumor implantation", "type": "in vivo, rat", "conditions": "treatment on days 7, 8 & 9; Levitra 10 mg/kg oral, Adriamycin 2 mg/kg i.v.; control 21.8", "source_text": "Adult, female Fischer rats (180-200 g) were implanted with 9L glioma cells (100,000 cells). […] 15, 2006.\nRats were monitored daily to determine survival times of the tumor-bearing rats for either death or when animals became moribund, euthanasia was employed."}, "9L gliosarcoma (9L/Luc)": {"tested_on": "9L gliosarcoma (9L/Luc)", "assay": "Tumor size monitoring by bioluminescence imaging and histology", "conditions": "day 9 after the last treatment; saline (2.21±1.27)×10^6"}, "caveolae endocytosis": {"tested_on": "caveolae endocytosis", "assay": "In vitro cellular transport of 14C-sucrose with inhibitor of caveolae endocytosis", "type": "cell-based", "source_text": "To determine whether this is the case for PDE5 inhibitors, the inventor used filipin, an inhibitor of caveolae endocytosis, in the in vitro cellular transport study (FIG. 21; P<0.05 vs. other two treatments). As shown, fillipin abolished the increased transport of ^14C-sucrose by sildenafil. […] As vesicular transport is not specific to brain microvessels per se, the inventor, while not wishing to be bound by any particular theory, believes the mechanism may be responsible for the increased cellular permeability by PDE5 inhibitors in non-CNS cells studied above."}, "[4]": {"tested_on": "blood-tumor barrier (BTB) of 9L gliosarcoma brain tumors", "assay": "[14C] sucrose transport (Ki) from blood into 9L brain tumors, quantitative autoradiography", "type": "in vivo, rat"}, "[5]": {"tested_on": "vessel endothelial cells derived from lung tissues (PVEC)", "assay": "In vitro cellular transport of 14C-sucrose, lung vessel endothelial cells", "type": "cell-based", "conditions": "PVECs"}, "[6]": {"tested_on": "human brain metastatic lung cancer cell line CRL-5904", "assay": "In vitro 14C-sucrose transport across tumor cells in transwell, CRL-5904", "type": "cell-based", "protocol": "(§1) In addition to endothelial cells, the inventor tested whether the inhibition of PDE5 has any effect on tracer transport in other tumor cells. In the studies, two tumor cell lines (human brain metastatic lung cancer cell line CRL-5904 and human breast cancer cell line MDA-MB-231) were tested."}, "[7]": {"tested_on": "human breast cancer cell line MDA-MB-231", "assay": "In vitro 14C-sucrose transport across tumor cells in transwell, MDA-MB-231", "type": "cell-based", "protocol": "as §1"}, "[8]": {"tested_on": "mouse brain endothelial cells", "assay": "In vitro cellular transport of 14C-sucrose, brain endothelial cells", "type": "cell-based"}, "[9]": {"conditions": "femoral infusion of BK or oral sildenafil or vardenafil"}}, "note": "Counter-ions that a name gives are not always drawn. No end group written: not given here.", "data": [{"molecule": "RPPGFSPFR [BK, Bradykinin]", "values": [{"measurement": "arterial blood pH, carbon dioxide, and partial pressure of oxygen", "setting": "[1]; rat, in vivo, po", "result": "not changed significantly"}]}, {"molecule": "CCCc1nc(C)c2c(=O)[nH]c(-c3cc(S(=O)(=O)N4CCN(CC)CC4)ccc3OCC)nn12", "note": "[vardenafil]", "values": [{"measurement": "plasma cGMP level", "setting": "cGMP [2]; 30 minutes after oral vardenafil 10 mg/kg, control 0.72±0.48", "result": "54.96 ± 25.13", "unit": "pg/mL"}, {"measurement": "plasma cGMP level", "setting": "cGMP [2]; 60 minutes after oral vardenafil 10 mg/kg", "result": "79.20 ± 37.36", "unit": "pg/mL"}, {"measurement": "plasma cGMP level", "setting": "cGMP [2]; 90 minutes after oral vardenafil 10 mg/kg", "result": "30.13 ± 17.82", "unit": "pg/mL"}, {"measurement": "time of peak plasma cGMP concentration", "setting": "cGMP [2]; oral vardenafil 10 mg/kg", "result": 60, "unit": "min"}, {"measurement": "mean survival time", "setting": "9L gliosarcoma", "result": "35 ± 1", "unit": "days"}, {"measurement": "reduction in mean-arterial blood pressure", "setting": "[1]", "result": 10, "unit": "%"}, {"measurement": "arterial blood pH, carbon dioxide, and partial pressure of oxygen", "setting": "[1]; [9]", "result": "not changed significantly"}, {"measurement": "detectable side effects (e.g. hypotension)", "setting": "[1]", "result": "did not result in any detectable side effects"}, {"measurement": "detectable side effects (e.g. hypotension)", "setting": "[1]; listed as Levitra®", "result": "did not induce hypotension"}, {"measurement": "time at which tumor cGMP immunostaining returned to the baseline", "setting": "cGMP [3]", "result": 90, "unit": "min"}, {"measurement": "Mean Survival Days, Mean", "setting": "9L glioma", "result": 22.7, "unit": "days"}]}, {"molecule": "COc1cccc2c1C(=O)c1c(O)c3c(c(O)c1C2=O)C[C@@](O)(C(=O)CO)C[C@@H]3O[C@H]1C[C@H](N)[C@H](O)[C@H](C)O1", "note": "[Adriamycin® (doxorubicin), doxorubicin hydrochloride]", "values": [{"measurement": "mean survival time", "setting": "9L gliosarcoma", "result": "42 ± 2", "unit": "days"}, {"measurement": "intracerebral tumor size (IVIS bioluminescence)", "setting": "9L gliosarcoma (9L/Luc)", "result": "(1.03±0.28)×10^6"}, {"measurement": "Mean Survival Days, Mean", "setting": "9L glioma", "result": 30, "unit": "days"}]}, {"molecule": "CCCCC[C@@H](O)[C@H]1C(=O)O[C@H](C)[C@@H](O)/C=C/C=C/C=C/C=C/C=C(\\C)[C@@H](O)C[C@H](O)C[C@H](O)C[C@H](O)C[C@H](O)C[C@H](O)C[C@@H]1O", "note": "[fillipin, filipin]", "values": [{"measurement": "effect on the increased transport of 14C-sucrose by sildenafil", "setting": "caveolae endocytosis", "result": "abolished"}]}, {"molecule": "iberiotoxin (QFTDVDCSVSKECWSVCKDLFGVDRGKCMGKKCRCYQ; UniProt P24663 1-37, looked up)", "values": [{"measurement": "effect on vardenafil-induced BTB transport increase", "setting": "[4]; iberiotoxin 0.26 μg/kg/min infused 15 min with oral vardenafil 10 mg/kg", "result": "abolished"}]}, {"molecule": "CCCc1nn(C)c2c(=O)[nH]c(-c3cc(S(=O)(=O)N4CCN(C)CC4)ccc3OCC)nc12", "note": "[sildenafil]", "values": [{"measurement": "14C-sucrose transport", "setting": "[5]", "result": "significantly increased"}, {"measurement": "14C-sucrose transport across cells seeded in the transwell", "setting": "[6]", "result": "increased"}, {"measurement": "dose giving maximal effect on permeability", "setting": "[4]; rat, in vivo", "result": 50, "unit": "mg/kg"}, {"measurement": "increase in BTB permeability", "setting": "[4]; rat, in vivo", "result": 1.8, "unit": "fold"}, {"measurement": "time of maximum transport across the BTB into tumor tissues after administration", "setting": "[4]; rat, in vivo", "result": 60, "unit": "min"}, {"measurement": "14C-sucrose transport across cells seeded in the transwell", "setting": "[7]", "result": "increased"}, {"measurement": "reduction in mean-arterial blood pressure", "setting": "[1]", "result": 10, "unit": "%"}, {"measurement": "arterial blood pH, carbon dioxide, and partial pressure of oxygen", "setting": "[1]; [9]", "result": "not changed significantly"}, {"measurement": "detectable side effects (e.g. hypotension)", "setting": "[1]", "result": "did not result in any detectable side effects"}, {"measurement": "detectable side effects (e.g. hypotension)", "setting": "[1]; listed as Viagra®", "result": "did not induce hypotension"}, {"measurement": "14C-sucrose transport", "setting": "[8]", "result": "significantly increased"}]}]}
